Biological target: T1, human DPP-IV (Homo sapiens, UniProt P27487)
T1 construct: made in house; host or cells: Pichia pastoris
Experiment: DPP-IV activity assay (fluorogenic or colorimetric substrate), IC50 determination
Assay type: biochemical
Details: natural human DPP-IV from human plasma pool or recombinant human DPP-IV; 37° C., pH 7.8
Experimental: Activity of DPP-IV inhibitors are tested with natural human DPP-IV derived from a human plasma pool or with recombinat human DPP-IV. Human citrate plasma from different donors is pooled, filterted through a 0.2 micron membrane under sterile conditions and aliquots of 1 ml are shock frozen and stored at −120° C. until used. In the calorimetric DPP-IV assay 5 to 10 μl human plasma and in the fluorometric assay 1.0 μl of human plasma in a total assay volume of 100 μl is used as an enzyme source. […] Human DPP-IV is expressed and purified from the cultur medium using conventional column chromatography including size exclusion and anion and cation chromatography. […] In the calorimetric DPP-IV assay 20 ng rec.-h DPP-IV and in the fluorometric assay 2 ng rec-h DPP-IV in a total assay volume of 100 μl is used as an enzyme source.
A 20 mM stock solution in 10% DMF/H2O is stored at −20° C. until use.
A 10 mM stock solution in 10% MeOH/H2O is stored at −20° C. until use.
Fluorescence is detected in a Perkin Elmer Luminescence Spectrometer LS 50B at an excitation wavelength of 400 nm and an emission wavelength of 505 nm continuously every 15 seconds for 10 to 30 minutes. Initial rate constants are calculated by best fit linear regression.
Initial rate constants are calculated by best fit linear regression.
DPP-IV activity assays are performed in 96 well plates at 37° C. in a total assay volume of 100 μl. The assay buffer consists of 50 mM Tris/HCl pH 7.8 containing 0.1 mg/ml BSA and 100 mM NaCl. Test compounds are solved in 100% DMSO, diluted to the desired concentration in 10% DMSO/H2O. The final DMSO concentration in the assay is 1% (v/v). […] Compounds are with (10 minutes at 37° C.) and without preincubation with the enzyme. Enzyme reactions are started with substrate application follwed by immediate mixing.
Kinetic parameters of the enzyme reaction are calculated at at least 5 different substrate concentrations and at least 5 different test compound concentrations.

T1 sequence (P27487 31-766): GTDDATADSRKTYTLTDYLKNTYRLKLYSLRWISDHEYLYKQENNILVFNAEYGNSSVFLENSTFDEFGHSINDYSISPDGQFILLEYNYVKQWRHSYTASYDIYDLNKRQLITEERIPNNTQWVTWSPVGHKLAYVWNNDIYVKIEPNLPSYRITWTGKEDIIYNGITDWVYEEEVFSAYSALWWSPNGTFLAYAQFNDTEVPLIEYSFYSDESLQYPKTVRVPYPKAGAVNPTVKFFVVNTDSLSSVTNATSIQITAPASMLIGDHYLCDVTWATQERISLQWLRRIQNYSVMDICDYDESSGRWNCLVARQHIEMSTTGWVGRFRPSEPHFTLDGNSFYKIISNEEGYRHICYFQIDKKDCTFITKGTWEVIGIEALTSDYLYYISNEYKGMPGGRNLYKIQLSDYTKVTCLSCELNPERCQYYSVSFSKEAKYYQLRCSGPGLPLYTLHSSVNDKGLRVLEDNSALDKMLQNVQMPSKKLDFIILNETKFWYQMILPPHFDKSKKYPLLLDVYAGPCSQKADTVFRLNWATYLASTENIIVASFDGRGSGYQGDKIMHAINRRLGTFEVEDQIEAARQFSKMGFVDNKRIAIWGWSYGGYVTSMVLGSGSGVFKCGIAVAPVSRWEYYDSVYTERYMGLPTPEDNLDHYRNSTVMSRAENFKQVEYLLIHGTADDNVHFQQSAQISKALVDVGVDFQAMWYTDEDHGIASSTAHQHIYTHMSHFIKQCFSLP

IC50 [nM] | Compound
7 | CC(C)(CNc1ccc(-c2cccc(C(F)(F)F)c2)cn1)NCC(=O)N1CCC[C@H]1C#N [Example 119, (2S)-1-({1,1-Dimethyl-2-[5-(3-trifluoromethyl-phenyl)-pyridin-2-ylamino]-ethylamino}-acetyl)-pyrrolidine-2-carbonitrile]
128 | COc1cc2c(C(=O)C(F)(F)F)cn(C[C@H](C)NCC(=O)N3CCC[C@H]3C#N)c2cc1OC [Example 23, (2S)-1-{[(1S)-2-(5,6-Dimethoxy-3-trifluoroacetyl-indol-1-yl)-1-methyl-ethylamino]-acetyl}-pyrrolidine-2-carbonitrile]
1 | Cc1cccc(-c2nc(CC(C)(C)NCC(=O)N3CCC[C@H]3C#N)c(C)[nH]2)c1 [Example 188, (2S)-1-{[1,1-Dimethyl-2-(5-methyl-2-m-tolyl-1H-imidazol-4-yl)-ethylamino]-acetyl}-pyrrolidine-2-carbonitrile]
1 | CC(C)(CNc1cccc(-c2ccccc2)n1)NCC(=O)N1CCC[C@H]1C#N [Example 129, (2S)-1-{[1,1-Dimethyl-2-(6-phenyl-pyridin-2-ylamino)-ethylamino]-acetyl}-pyrrolidine-2-carbonitrile]
88 | Cc1c(C)n(C[C@H](C)NCC(=O)N2CCC[C@H]2C#N)c2ccccc12 [Example 7, (2S)-1-{[(1S)-2-(2,3-Dimethyl-indol-1-yl)-1-methyl-ethylamino]-acetyl}-pyrrolidine-2-carbonitrile]
